Data set [1] in a line: insulin unit content per mg. The procedure: (§1) A test was conducted with Insulin Human Recombinant (IHR) and Insulin Bovine Pancreas (IBP). […] IHR and IBP represent about 26 Insulin Units (IU) per mg.
Data set [2] is classed as physicochemical. As to the method: as §1
(§2) A synthetic anti-PAF, 4,7,8,10-tetrahydro-1-methyl-6-(2-chlorphenyl)-9-(4-methoxyphenylthiocarbamoyl)-pyrido-[4′,3′-4,5] thieno [3,2-f]-1,2,4-triazolo [4,5-a] 1,4-diazepine, and a natural anti-PAF, ginkgolide B, were compared to conventional administration. The synthetic anti-PAF cannot conventionally be used parenterally because of its insolubility.

Data set [3] relates to PAF. The data set is described as follows: anti-PAF pharmacological effect, solid form vs conventional administration. Format: in vivo.
Description: as §2

Data set [4] can be described thus: pharmacokinetic profiles of injected tablets vs conventional solutions. Type of data set: in vivo. Particulars: tablets with gelatin and PVP 5-10%. The procedure:
A formulation of a somatostatin analogue, D-Nal-cyclo [Cys-Tyr-D-Trp-Lys-Val-Cys]-Thr-NH2 was made into injectable tablets by associating the dry material with gelatin and polyvinylpyrrolidone (PVP, 5-10%). The tablets were injected and compared to conventional solutions in terms of pharmacokinetic profiles.

Consider Insulin Bovine Pancreas [IBP], for which the “Insulin Units (IU) per mg” value in data set [1] was “about 26 IU per mg”. For the same compound, the water solubility result in data set [2] is on record as “water insoluble”.

In the case of `CC1C(=O)OC2C(O)C34C5CC(C(C)(C)C)C36C(OC(=O)C6O)OC4(C(=O)O5)C12O` (centres unmarked) [ginkgolide B], the water solubility result in data set [2] is listed as “slightly soluble”. Besides, the “effect after initial injection, solid vs solution” value in data set [3] (same dose, solution pH 8.75) is on record as “the effect was the same after initial injection”. For the same compound, the duration of effect in data set [3] (solid dry formulation, same dose) is 24 h; in data set [3] (solution form (pH 8.75), same dose) it was 2 h.

Regarding Insulin Human Recombinant [IHR], in data set [1], the “Insulin Units (IU) per mg” value is on record as “about 26 IU per mg”. Moreover, the water solubility result in data set [2] is listed as “water soluble”.

Take “D-Nal-cyclo [Cys-Tyr-D-Trp-Lys-Val-Cys]-Thr-NH2”: the “pharmacokinetic profile / pharmacological results, injected tablets vs conventional solutions” value in data set [4] is “substantially the same pharmacological results”.

Turning to `COc1ccc(NC(=S)N2CCc3c(sc4c3C(c3ccccc3Cl)=NCc3nnc(C)n3-4)C2)cc1` [synthetic anti-PAF, 4,7,8,10-tetrahydro-1-methyl-6-(2-chlorphenyl)-9-(4-methoxyphenylthiocarbamoyl)-pyrido-[4′,3′-4,5] thieno [3,2-f]-1,2,4-triazolo [4,5-a] 1,4-diazepine], the water solubility result in data set [2] is “insolubility”. The “correlation between pharmacological effect and blood concentration” value in data set [3] (solid form) is “very good correlation”.

The values above are taken from patent publication US6896893B2, “Needle-less parenteral introduction device” (Societe de Conseils de Recherches et d'Applications …, priority 1994, dated 2005).
